The target in the test is unphosphorylated-BTK kinase domain (UP-BTK), GST-tagged human BTK (389-659aa) (Homo sapiens (Human), UniProt Q06187). In words: BTK Kinase Lanthascreen Binding Assay. Conditions: compound, 50 nM Tracer 236, 2 nM anti-GST antibody, 60 minutes; pIC50 = negative log of the IC50 in molar. On the procedure: BTK Kinase Lanthascreen Binding Assay:
A BTK kinase lanthascreen binding assay monitors compound binding to unphosphorylated-BTK kinase domain (UP-BTK), by competing with a fluorescent labeled tracer. […] Data were analyzed using Xlfit™ version 5.3 from ID Business Solutions (Guildford), Microsoft Excel add-in. pIC50 refers to the negative log of the IC50 in molar.
In general terms: Time-resolved FRET reads energy transfer from a long-lived donor to a nearby acceptor.
Chain of unphosphorylated-BTK kinase domain (UP-BTK), GST-tagged human BTK (389-659aa) (Q06187 389-659): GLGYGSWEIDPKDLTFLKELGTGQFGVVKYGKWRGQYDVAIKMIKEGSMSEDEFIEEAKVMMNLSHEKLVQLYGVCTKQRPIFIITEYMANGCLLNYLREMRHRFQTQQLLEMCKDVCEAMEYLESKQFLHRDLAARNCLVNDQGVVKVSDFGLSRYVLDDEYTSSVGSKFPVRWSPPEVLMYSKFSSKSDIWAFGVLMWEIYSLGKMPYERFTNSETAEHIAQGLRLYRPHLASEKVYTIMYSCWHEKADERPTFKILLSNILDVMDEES
For `CCC(=O)N[C@H]1CCC[C@@H]1NC(=O)c1sc2nccc3c2c1NC(=O)N3c1ccc(Oc2ccccc2)cc1C` [Example 45, 5-(2-Methyl-4-phenoxyphenyl)-4-oxo-N-((1S,2S)-2-propionamidocyclopentyl)-4,5-dihydro-3H-1-thia-3,5,8-triazaacenaphthylene-2-carboxamide], the “BTK_I_binding pIC50” value amounted to 6.14.
Next, `CN[C@H]1CCC[C@@H]1NC(=O)c1sc2nccc3c2c1NC(=O)N3c1ccc(Oc2ccccc2)cc1C` [Example 46, 5-(2-Methyl-4-phenoxyphenyl)-N-((1S,2S)-2-(methylamino)cyclopentyl)-4-oxo-4,5-dihydro-3H-1-thia-3,5,8-triazaacenaphthylene-2-carboxamide]: 6.14; `CC(=O)N[C@@H]1CCCC[C@H]1NC(=O)c1sc2nccc3c2c1NC(=O)N3c1ccc(Oc2ccccc2)cc1C` [Example 47, N-((1R,2R)-2-Acetamidocyclohexyl)-5-(2-methyl-4-phenoxyphenyl)-4-oxo-4,5-dihydro-3H-1-thia-3,5,8-triazaacenaphthylene-2-carboxamide]: 6.12.
Turning to `Cc1cc(Oc2ccccc2)ccc1N1C(=O)Nc2c(C(=O)N[C@H]3CCCC[C@H]3N(C)C)sc3nccc1c23` [Example 48, N-((1S,2R)-2-(Dimethylamino)cyclohexyl)-5-(2-methyl-4-phenoxyphenyl)-4-oxo-4,5-dihydro-3H-1-thia-3,5,8-triazaacenaphthylene-2-carboxamide], the “BTK_I_binding pIC50” value turned out to be 6.12.
With `Cc1cc(Oc2ccccc2)ccc1N1C(=O)Nc2c(C(=O)N[C@H]3CCCC[C@H]3N)sc3nccc1c23` [Example 49, N-((1S,2R)-2-Aminocyclohexyl)-5-(2-methyl-4-phenoxyphenyl)-4-oxo-4,5-dihydro-3H-1-thia-3,5,8-triazaacenaphthylene-2-carboxamide] the figure was 6.12.
Turning to `CN[C@@H]1CCCC[C@@H]1NC(=O)c1sc2nccc3c2c1NC(=O)N3c1ccc(Oc2ccccc2)cc1C` [Example 50, 5-(2-Methyl-4-phenoxyphenyl)-N-((1S,2R)-2-(methylamino)cyclohexyl)-4-oxo-4,5-dihydro-3H-1-thia-3,5,8-triazaacenaphthylene-2-carboxamide], the “BTK_I_binding pIC50” value is on record as 6.07.
Next, `Cc1cc(Oc2ccccc2)ccc1N1C(=O)Nc2c(C(=O)N[C@H]3CCC[C@H]3N(C)C)sc3nccc1c23` [Example 51, N-((1S,2R)-2-(Dimethylamino)cyclopentyl)-5-(2-methyl-4-phenoxyphenyl)-4-oxo-4,5-dihydro-3H-1-thia-3,5,8-triazaacenaphthylene-2-carboxamide]: 6.01; `CCC(=O)N[C@@H]1CCCC[C@H]1NC(=O)c1sc2nccc3c2c1NC(=O)N3c1ccc(Oc2ccccc2)cc1C` [Example 52, 5-(2-Methyl-4-phenoxyphenyl)-4-oxo-N-((1R,2R)-2-propionamidocyclohexyl)-4,5-dihydro-3H-1-thia-3,5,8-triazaacenaphthylene-2-carboxamide]: 6.01.
Consider `Cc1cc(Oc2ccccc2)ccc1N1C(=O)Nc2c(C(=O)N[C@H]3CCC[C@H]3N)sc3nccc1c23` [Example 53, N-((1S,2R)-2-Aminocyclopentyl)-5-(2-methyl-4-phenoxyphenyl)-4-oxo-4,5-dihydro-3H-1-thia-3,5,8-triazaacenaphthylene-2-carboxamide], for which the “BTK_I_binding pIC50” value is 5.95.
Turning to `Cc1cc(Oc2ccccc2)ccc1N1C(=O)Nc2c(C(=O)N[C@H]3CCCC[C@@H]3NC=O)sc3nccc1c23` [Example 54, N-((1S,2S)-2-Formamidocyclohexyl)-5-(2-methyl-4-phenoxyphenyl)-4-oxo-4,5-dihydro-3H-1-thia-3,5,8-triazaacenaphthylene-2-carboxamide], the “BTK_I_binding pIC50” value worked out at 5.90.
Next, `CC(=O)N[C@H]1CCCC[C@@H]1NC(=O)c1sc2nccc3c2c1NC(=O)N3c1ccc(Oc2ccccc2)cc1C` [Example 55, N-((1S,2S)-2-Acetamidocyclohexyl)-5-(2-methyl-4-phenoxyphenyl)-4-oxo-4,5-dihydro-3H-1-thia-3,5,8-triazaacenaphthylene-2-carboxamide]: 5.88.
For the molecule `CC(=O)N[C@@H]1CCC[C@@H]1NC(=O)c1sc2nccc3c2c1NC(=O)N3c1ccc(Oc2ccccc2)cc1C` [Example 57, N-((1S,2R)-2-Acetamidocyclopentyl)-5-(2-methyl-4-phenoxyphenyl)-4-oxo-4,5-dihydro-3H-1-thia-3,5,8-triazaacenaphthylene-2-carboxamide], the “BTK_I_binding pIC50” value turned out to be 5.65.
In the case of `Cc1cc(Oc2ccccc2)ccc1N1C(=O)Nc2c(C(=O)N[C@H]3CCCC[C@@H]3N)sc3nccc1c23` [Example 58, N-((1S,2S)-2-Aminocyclohexyl)-5-(2-methyl-4-phenoxyphenyl)-4-oxo-4,5-dihydro-3H-1-thia-3,5,8-triazaacenaphthylene-2-carboxamide], the “BTK_I_binding pIC50” value is recorded as 5.51.
Turning to `CCC(=O)N[C@@H]1CCC[C@@H]1NC(=O)c1sc2nccc3c2c1NC(=O)N3c1ccc(Oc2ccccc2)cc1C` [Example 59, 5-(2-Methyl-4-phenoxyphenyl)-4-oxo-N-((1S,2R)-2-propionamidocyclopentyl)-4,5-dihydro-3H-1-thia-3,5,8-triazaacenaphthylene-2-carboxamide], the “BTK_I_binding pIC50” value is on record as 5.46.
Take `CCC(=O)N[C@H]1CCCC[C@@H]1NC(=O)c1sc2nccc3c2c1NC(=O)N3c1ccc(Oc2ccccc2)cc1C` [Example 60, 5-(2-Methyl-4-phenoxyphenyl)-4-oxo-N-((1S,2S)-2-propionamidocyclohexyl)-4,5-dihydro-3H-1-thia-3,5,8-triazaacenaphthylene-2-carboxamide]: the “BTK_I_binding pIC50” value was determined as 5.40.
As for `Cc1cc(Oc2ccccc2)ccc1N1C(=O)Nc2c(C(=O)N[C@H]3CCCC[C@@H]3N(C)C)sc3nccc1c23` [Example 62, N-((1S,2S)-2-(Dimethylamino)cyclohexyl)-5-(2-methyl-4-phenoxyphenyl)-4-oxo-4,5-dihydro-3H-1-thia-3,5,8-triazaacenaphthylene-2-carboxamide], the “BTK_I_binding pIC50” value was 5.29.
As to `CNC1CCC(NC(=O)c2sc3nccc4c3c2NC(=O)N4c2ccc(Oc3ccccc3)cc2C)CC1` (stereo not shown) [Example 63, 5-(2-Methyl-4-phenoxyphenyl)-N-(4-(methylamino)cyclohexyl)-4-oxo-4,5-dihydro-3H-1-thia-3,5,8-triazaacenaphthylene-2-carboxamide], the “BTK_I_binding pIC50” value turned out to be 6.85.
With `CC(=O)N[C@H]1CC[C@@H](NC(=O)c2sc3nccc4c3c2NC(=O)N4c2ccc(Oc3ccccc3)cc2C)CC1` [Example 64, N-((1S,4S)-4-Acetamidocyclohexyl)-5-(2-methyl-4-phenoxyphenyl)-4-oxo-4,5-dihydro-3H-1-thia-3,5,8-triazaacenaphthylene-2-carboxamide] the figure was 7.28; with `CCC(=O)N[C@H]1CC[C@@H](NC(=O)c2sc3nccc4c3c2NC(=O)N4c2ccc(Oc3ccccc3)cc2C)CC1` [Example 65, 5-(2-Methyl-4-phenoxyphenyl)-4-oxo-N-((1S,4S)-4-propionamidocyclohexyl)-4,5-dihydro-3H-1-thia-3,5,8-triazaacenaphthylene-2-carboxamide], 7.20.

Values taken from patent US10934310B2, “Inhibitors of Bruton's tyrosine kinase and method of their use” (JANSSEN PHARMACEUTICA NV, priority 2015, dated 2021).
